Assay results reported in US5430058A, “Pharmaceutical compositions comprising hydroxamate derivatives for iron removal” (Yeda Research and Development Co. Ltd., priority 1993, dated 1995).
In brackets after ≈: the same amount, converted by molar mass. Like-named read-outs stand apart in the source and are kept apart here.

Tests used:
[1] = tested on: Plasmodium falciparum strain W2; experiment: Antimalarial activity in various strains, W2; format: cell-based
Procedure: (§1) f. Parasite cultures. The P. falciparum strains used in the experiments: ItG2G1 (Brazil, provided by Dr. L. H. Miller), D6 (W. African, provided by Dr. A. J. M. Oduola) FCR-3 (Gambian, provided by Dr. J. B. Jensen) and W2 (Indochina, provided by Dr. A. J. M. Oduola), were grown in culture flasks of human erythrocytes by a modified version of Trager and Jensen's method as described by Silfen et al. ((1988) Biochem. Pharmacol. 37: 4269-4276)).
(§2) g. Bioassay of iron carrier antimalarial activity. […] After the indicated time of incubation with drug and either previous to or after washing 3 times with 100 volumes growth medium, the cells were supplemented with 6 μCi of either [^3 H]-hypoxanthine or [^3 H]-Ileu (Amersham, England) per well and parasite growth assessed after 24-48 hours by harvesting the labelled cells onto glass-fiber filters (Tamar, Inc. Jerusalem) and counting of the radioactivity.
(§3) It is clear that the efficacy of the agents is primarily correlated with the respective octanol/saline partition coefficient or the hydrophobicity of the amino acid side chain, and only secondarily with their iron binding efficiencies, which are relatively high for all the agents. […] The antimalarial activity of the various chelators was assessed over a 24 hr period of exposure on infected cells (trophozoite stage of P. falciparum) as described in method (g). […]

infected red cells = experiment: Uptake of 59Fe-carrier complexes into infected red cells; format: cell-based, human erythrocytes infected with P. falciparum
Procedure: k. Uptake of radioactive carrier-Fe complexes. DFO and the different SF derivatives were pre-complexed with iron by addition of concentrated stock solutions of 20 mg/ml carriers to ^59 FeCl3 (Amersham, England) in 0.5 ml of 150 mM NaCl, 10 mM Hepes at 3-5 molar excess of carrier for 1 hour at room temperature. To begin the flux, normal or parasitized red cells that had been washed 3 times in saline buffer and resuspended in the same buffer supplemented with 5% bovine serum albumin (BSA), 2.5 mM citrate, 2 mg/ml glucose were added to radioactive ^59 Fe-complexes at a final suspension of 20% hematocrit. After incubation at 37° C., 75 μl suspension was removed in duplicate aliquots for each time point, placed in plastic 15 ml test tube (Starstedt) and centrifuged 1 minute at 2,500 g. The supernatant was removed and the pellet immediately placed on ice. After all sampling was completed the pellets were washed twice in 15 ml of ice cold buffer containing 50 mM EDTA and lysed in distilled water. Radioactivity (Gamma emission, 700-1300 Kev) was counted and the cell number for each sample determined from hemoglobin absorption of the lysate at 410 nm.
Penetration of RSF's into normal and infected red cells was estimated by monitoring uptake of the RSF's-^59 Fe(III) complexes into infected and uninfected cells and compared to DFO. In order to confirm actual uptake of Fe-RSF ileun2 rather than adsorption to the outer membrane, cells were thoroughly washed and lysates were subjected to 80,000g×20 min centrifugation.
The carriers were pre-complexed to ^59 FeCl3 at 4:1 ration in DMSO with 5 μM external FeCl3 (from methanolic stock solutions). The radioactive complexes were then added to 20% hematocrit cell suspensions and flux was measured. […] Cell number was determined from hemoglobin absorption of lysate at 410 nm.

[2] = Partition between n-octanol and saline; format: physicochemical; details: for rel. Pcoeff (a): Table 2, relative to L-val-n1 = 1.0
Procedure: e. Partition coefficients were obtained by overnight equilibration of the free reversed siderophores between equal volumes of n-octanol and saline. The concentrations of the ligands in each phase were determined by adding excess iron(III) and measuring the ferric complexes at 430 nm.
(§4) The values for Pcoeff of free RSF ileun2 (the same as SF1ileu) and of leun2 and their respective iron(III) complexes were similar (not shown).

[3] = tested on: trophozoites of P. falciparum; experiment: Antimalarial activity (Table 2), [3H]-hypoxanthine incorporation; format: cell-based, Plasmodium falciparum; details: 40 h
Procedure: g. Bioassay of iron carrier antimalarial activity. The antimalarial activity was assayed by adding the compounds from concentrated stock solutions (in DMSO) to microcultures (24 wells, Costar) containing infected red cells (2.5% hematocrit and 2% parasitemia). The cultures were usually synchronized (4-7 hrs. windows) by incubation in 300 mM Ala, 10 mM TRIS-Cl in conjunction with gelatin flotation and used either at the trophozoite (1-2% parasitemia) or at the ring stage (4-6% parasitemia) of the erythrocyctic cycle. After the indicated time of incubation with drug and either previous to or after washing 3 times with 100 volumes growth medium, the cells were supplemented with 6 μCi of either [^3 H]-hypoxanthine or [^3 H]-Ileu (Amersham, England) per well and parasite growth assessed after 24-48 hours by harvesting the labelled cells onto glass-fiber filters (Tamar, Inc. Jerusalem) and counting of the radioactivity. […]

[4] = tested on: trophozoites of P. falciparum, strain ItG2G1; experiment: Antimalarial activity (Table 1), [3H]hypoxanthine incorporation; format: cell-based; details: Plasmodium falciparum
Procedure: as §1
g. Bioassay of iron carrier antimalarial activity. The antimalarial activity was assayed by adding the compounds from concentrated stock solutions (in DMSO) to microcultures (24 wells, Costar) containing infected red cells (2.5% hematocrit and 2% parasitemia). The cultures were usually synchronized (4-7 hrs. windows) by incubation in 300 mM Ala, 10 mM TRIS-Cl in conjunction with gelatin flotation and used either at the trophozoite (1-2% parasitemia) or at the ring stage (4-6% parasitemia) of the erythrocyctic cycle. After the indicated time of incubation with drug and either previous to or after washing 3 times with 100 volumes growth medium, the cells were supplemented with 6 μCi of either [^3 H]-hypoxanthine or [^3 H]-Ileu (Amersham, England) per well and parasite growth assessed after 24-48 hours by harvesting the labelled cells onto glass-fiber filters (Tamar, Inc. Jerusalem) and counting of the radioactivity.
The antimalarial activity of the different chelators was initially evaluated on cultures of trophozoites which were exposed for 24 hours to different concentrations of chelators. Following that period, [^3 H]-hypoxanthine or [^3 H]-Ileu were added and 24 hours later the parasitemia and incorporation of label into macromolecular material was determined.

[5] = tested on: Plasmodium falciparum strain FCR3; experiment: Antimalarial activity in various strains, FCR3; format: cell-based
Procedure: as §1, §2, §3

[6] = Relative iron(III) binding efficiency by competition with EDTA; format: physicochemical; details: for Relative binding: Table 1, DFO = 100, competition with EDTA in aqueous MeOH; for rel. Fe binding (b): Table 2, relative to DFO = 1.16, 0.75 mM hydroxamate, 0.15 mM EDTA, 0.15 mM Fe3+ in aqueous methanol; for Pcoeff*Fe binding (a*b): product of relative partition coefficient and relative iron(III) binding
Procedure: c. The relative binding efficiencies of the reversed siderophores (0.75 mM reversed siderophore and 0.15 mM Fe^3+ in aqueous MeOH (MeOH-0.1N NaOAc) were incubated with EDTA (0.15 mM). After equilibration overnight, the fraction of siderophore- Fe^3+ complex present was determined at 430 nm.
as §4

[7] = iron(III) complex, infected red cells, 5 μM external Fe

SMILES	IC50 ([1]; strain W2 (chloroquine-resistant), 48 hour exposure, trophozoites, read-out: IC50)	Uptake into infected vs normal red cells (infected red cells; DFO-Fe, 8 hour time course)	Uptake level lower than that attained by RSF's after 10 minutes (infected red cells; intracellular Fe-DFO after 8 hours vs RSF's after 10 minutes)	rel. Pcoeff (a) [2]	IC50 (c) [3]	IC50 ([4]; 48 hours exposure, strain ItG2G1 trophozoites, read-out: IC50)	IC50 ([5]; strain FCR3 (chloroquine-resistant), 48 hour exposure, trophozoites, read-out: IC50)	Relative binding [6]	rel. Fe binding (b) [6]	Pcoeff*Fe binding (a*b) [6]	IC50 ([1]; W2, 48 h)	Time to maximum uptake (infected red cells; iron(III) complex, infected red cells)	Maximum uptake level (infected red cells; [7])	Uptake t1/2 (infected red cells; [7])	logP ([2]; Table 1, free ligand, read-out: Partition coefficient (converted))	Pcoeff of free ligand vs iron(III) complex ([2]; not shown)	IC50 ([3]; Plasmodium falciparum, read-out: IC50 (c))	IC50 ([4]; 48 h)	IC50 ([5]; FCR3, 48 h)
CC(=O)N(O)CCCCCNC(=O)CCC(=O)N(O)CCCCCNC(=O)CCC(=O)N(O)CCCCCN [DFO, desferrioxamine B, reference compound]	31 ± 6 µg/mL (≈ 55.3 µM)	approximately twice that of normal red cells	20 fold	< 0.056	40000 ± 8000 nM	30 µg/mL (≈ 53.5 µM)	32 ± 7 µg/mL (≈ 57.1 µM)	100	1.16	0.065									
CC[C@H](C)[C@H](NC(=O)CCOCC(CC)(COCCC(=O)N[C@H](C(=O)N(C)O)[C@@H](C)CC)COCCC(=O)N[C@H](C(=O)N(C)O)[C@@H](C)CC)C(=O)N(C)O [SF1-ileu]				8.2				25	0.29	2.4	4 ± 1 µg/mL (≈ 5.15 µM)	10 to 15 min	4 nmoles/10^10 cells	2 to 3 min	1.15	similar	3000 ± 2000 nM	2 µg/mL (≈ 2.57 µM)	3 ± 1 µg/mL (≈ 3.86 µM)
